In BindingDB's records for doi:10.7270/Q2MK6B9H (Nmmlsc, 2009) one finds EC50 data, which are given here for 27 compounds.

For one assay, the target named is Ras-related protein Rab-7a (Canis lupus familiaris, UniProt P18067). Description: Rab7 wildtype GTP binding inhibitors, SAR follow-up, biochemical, dog Rab7, bead multiplex flow cytometry, Bodipy-FL-GTP, pyrazoline series (AID 2041).
Sequence of Ras-related protein Rab-7a (P18067 whole entry): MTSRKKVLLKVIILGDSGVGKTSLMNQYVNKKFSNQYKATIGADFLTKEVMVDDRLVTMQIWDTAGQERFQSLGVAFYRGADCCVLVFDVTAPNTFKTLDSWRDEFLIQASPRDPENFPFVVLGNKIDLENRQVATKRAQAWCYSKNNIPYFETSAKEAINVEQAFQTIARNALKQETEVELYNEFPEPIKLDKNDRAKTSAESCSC
Details: not given
As for `COc1cccc(C2CC(c3ccccc3)=NN2c2ccc(S(N)(=O)=O)cc2)c1` (configuration not stated) [4-[3-(3-methoxyphenyl)-5-phenyl-3,4-dihydropyrazol-2-yl]benzenesulfonamide], the EC50 is greater than 30 µM. Still for that read-out and setting: the same measure for `COc1ccc(C2=NN(c3cccc(F)c3)C(c3ccc(Cl)cc3)C2)cc1` (configuration not stated) [3-(4-chlorophenyl)-2-(3-fluorophenyl)-5-(4-methoxyphenyl)-3,4-dihydropyrazole]: greater than 30 µM. `COc1ccc(C2CC(c3ccc(Br)cc3)=NN2c2ccc(S(N)(=O)=O)cc2)cc1` (configuration not stated) [UNM-0000306138]: the EC50 is greater than 30 µM.

`COc1ccc(C2CC(C(C)(C)C)=NN2c2ccc(S(N)(=O)=O)cc2)cc1` (configuration not stated) [KUC103450N] displayed an EC50 greater than 30 µM. The same measure, in the same setting: the result for `COc1ccc(C2CC(c3ccccc3)=NN2c2ccc(C(N)=O)cc2)cc1` (configuration not stated) [UNM-0000305870] reads greater than 30 µM; that for `O=[N+]([O-])c1ccc([N+]2=N[C-](c3ccccc3)CC2c2ccccc2)cc1` (configuration not stated), greater than 30 µM.

`COc1ccc(C2CC(c3cccc(C(F)(F)F)c3)=NN2c2ccc(S(N)(=O)=O)cc2)cc1` (configuration not stated) showed an EC50 greater than 30 µM. Regarding `CCc1ccc(C2=NN(c3ccc(S(N)(=O)=O)cc3)C(c3ccc(F)cc3)C2)cc1` (configuration not stated), the EC50 was greater than 30 µM. On the same count and under the same terms, the result for `COc1ccc(C2CC(C)=NN2c2ccc(S(N)(=O)=O)cc2)cc1` (configuration not stated) [4-[3-(4-methoxyphenyl)-5-methyl-3,4-dihydropyrazol-2-yl]benzenesulfonamide] reads greater than 30 µM. `COc1ccc(C2CC(c3cccc(OC)c3)=NN2c2ccc(S(N)(=O)=O)cc2)cc1` (configuration not stated) [4-[5-(3-methoxyphenyl)-3-(4-methoxyphenyl)-3,4-dihydropyrazol-2-yl]benzenesulfonamide]: the concentration for a half-maximal effect (EC50) is greater than 30 µM. As for `Fc1ccc(C2=NN(c3cccc(Br)c3)C(c3ccccc3)C2)cc1` (configuration not stated) [2-(3-bromophenyl)-5-(4-fluorophenyl)-3-phenyl-3,4-dihydropyrazole], the EC50 is greater than 30 µM.

Regarding `O=S(=O)(O)c1ccc(N2N=C(c3ccccc3)CC2c2ccccc2)cc1` (configuration not stated) [UNM-0000305834], the EC50 was greater than 30 µM. The compound `O=[N+]([O-])c1ccc([N+]2=N[C-](c3ccccc3)CC2c2ccc(O)cc2)cc1` (configuration not stated) [UNM-0000305838] came in with an EC50 greater than 30 µM.

With `Cc1cccc(N2N=C(c3ccccc3)CC2c2ccccc2)c1` (configuration not stated) [UNM-0000305835], the EC50 was greater than 30 µM. Still for that read-out and setting: the result for `COc1ccccc1C1CC(c2ccccc2)=NN1c1ccccc1` (configuration not stated) reads greater than 30 µM; that for `NS(=O)(=O)c1ccc(N2N=C(c3ccccc3)CC2c2cccc(Br)c2)cc1` (configuration not stated) [UNM-0000306147], greater than 30 µM.

Compound `FC(F)(F)c1cccc(N2N=C(c3ccc(Cl)cc3)CC2c2ccccc2Cl)c1` (configuration not stated) [UNM-0000305859] had an EC50 greater than 30 µM. On the same count and under the same terms, the same measure for `COc1ccc(C2CC(c3ccccc3F)=NN2c2ccc(S(N)(=O)=O)cc2)cc1` (configuration not stated) [UNM-0000306110]: greater than 30 µM.

`O=[N+]([O-])c1cccc(C2C[C-](c3ccccc3)N=[N+]2c2ccccc2)c1` (configuration not stated) [UNM-0000305857] displayed an EC50 greater than 30 µM.

With `COc1ccc(C2CC(c3ccccc3Cl)=NN2c2ccc(S(N)(=O)=O)cc2)cc1` (configuration not stated) [4-[5-(2-chlorophenyl)-3-(4-methoxyphenyl)-3,4-dihydropyrazol-2-yl]benzenesulfonamide], the EC50 is greater than 30 µM. On to `COc1ccc(C2CC(c3ccccc3)=NN2c2ccc(S(N)(=O)=O)cc2)cc1OC` (configuration not stated) [UNM-0000305823], for which the EC50 is greater than 30 µM.

In the case of `COc1ccc(C2=NN(c3ccc(Cl)cc3)C(c3ccccc3F)C2)cc1` (configuration not stated) [UNM-0000305863], the EC50 is greater than 30 µM. In turn, `COc1ccc(C2=NN(c3ccc(S(N)(=O)=O)cc3)C(c3ccc(OC)cc3)C2)cc1` (configuration not stated) [4-[3,5-bis(4-methoxyphenyl)-3,4-dihydropyrazol-2-yl]benzenesulfonamide] returned an EC50 greater than 30 µM. The compound `Cc1ccc(C2CC(c3ccccc3)=NN2c2ccc(S(N)(=O)=O)cc2)cc1` (configuration not stated) yielded an EC50 greater than 30 µM. For `NS(=O)(=O)c1ccc(N2N=C(c3ccccc3)CC2c2ccc(Cl)cc2)cc1` (configuration not stated) [4-[3-(4-chlorophenyl)-5-phenyl-3,4-dihydropyrazol-2-yl]benzenesulfonamide], the EC50 is greater than 30 µM. The compound `NS(=O)(=O)c1ccc(N2N=C(c3ccccc3)CC2c2ccccc2Cl)cc1` (configuration not stated) [KUC103446N] had an EC50 greater than 30 µM.

The assay is the same for the next values; noted with them: inactive by the depositor's call.
For the compound `Clc1ccc(N2N=C(c3ccccc3)CC2c2ccccc2)cc1` (configuration not stated), the EC50 was found to be 6.64 µM.

In general, EC50 refers to the concentration that produces a half-maximal response. A high value points to lower potency in that assay.
